Consider three molecules from ChEMBL document CHEMBL3272028, “Some substituted naphthazarins as potential anticancer agents” (1976).

Active and inactive are the calls of the source. The rule behind the calls is not given here.

The subject of experiment [1] is P388. Nature of the experiment: Antitumor activity against mouse P388 cells allografted in mouse at 50 mg/kg relative to control. The experiment is classed as functional.
The next experiment has as its system L1210. Nature of the experiment: Antitumor activity against mouse L1210 cells allografted in mouse. The experiment is classed as functional, cell-based.
Experiment [2] has as its system P388. Nature of the experiment: Antitumor activity against mouse P388 cells allografted in mouse at 400 mg/kg relative to control. Type of experiment: functional.
A short description of experiment [3]: Growth inhibition of human 9KB cells at 1.8 ug/ml relative to control. Particulars: read-out: GI. Type of experiment: functional.
The test system of experiment [4] is P388. Nature of the experiment: Antitumor activity against mouse P388 cells allografted in mouse. Type of experiment: functional, cell-based.

As for `CC1=C(C)C(=O)c2c(OC(=O)c3ccccc3)ccc(OC(=O)c3ccccc3)c2C1=O`, the T/C in the experiment on P388 [1] is listed as 128. Besides, the outcome in the experiment with L1210 was inactive.

`CC(=O)Oc1ccc(OC(C)=O)c2c1CC(C)=C(C)C2` registered a T/C with P388 [2] of 126. For the same molecule, in the experiment on L1210, the outcome was inactive.

With `CC(=O)Oc1ccc(OC(C)=O)c2c1C(=O)C=CC2=O`, the outcome with L1210 and with P388 [4] was inactive. Moreover, in experiment [3], the inhibition of growth at 1.8 µg/mL was determined as 50%.
